Three compounds from ChEMBL document CHEMBL1150709, “Irisones A and B: two new isoflavones from Iris missouriensis” (1987) can be followed below.

The subject of this assay is P388. Nature of the assay: Cytotoxicity against mouse P388 cells. It counts as functional. As to conditions: read-out: ED50 (the source's name).
As to `COc1ccccc1-c1coc2cc(O)c(OC)c(O)c2c1=O`, the EC50 is greater than 50 µg/mL.
As for `COc1ccccc1-c1coc2cc3c(c(O)c2c1=O)OCO3` [IRISONE A], the EC50 is greater than 50 µg/mL.
On to `O=c1c(-c2ccccc2O)coc2cc3c(c(O)c12)OCO3` [IRISONE B], for which the EC50 was greater than 50 µg/mL.
